Source: patent publication US20020162125A1, “Methods and compositions for the modulation of neurogenic inflammatory pain and physical opiate withdrawal” (priority 2001, published 2002)
Read-outs that look alike come from different tables or passages of the source.

How the values were obtained:
[1] = test system: αCGRP −/− and αCGRP +/+ mice; assay: Heroin self-administration (lever press operant task); format: in vivo
Description: Following acquisition of stable heroin self-administration at 15.0 μg/kg/injection dose (3 consecutive sessions <+/−20% variation, >70% active lever responding), mice were allowed to self-administer heroin at each dose during two daily two-hr sessions in a Latin square dose order. After all heroin doses had been tested, saline vehicle was substituted for heroin until responding stabilized for at least 2 consecutive sessions (data points above “saline”).
All procedures involving animals described here were approved by the Service Vétérinaire of the Canton of Vaud, Lausanne, Switzerland. Six individually housed mice of each genotype (CGRP −/− and +/+) were tested during the light phase (12/12; lights on 7:00 am) in daily sessions 5 days/week. Operant chambers housed in sound-attenuating cubicles with a house light and ventilation fan were equipped with cue lights above two retractable levers, a liquid dipper, syringe pump, liquid swivel and counterbalance arm (swivel and counterbalance arms—Instech, Plymouth Meeting, Pa., USA; all other equipment—MedAssociates, Georgia, Vt., USA). A single lever press on the “active” lever raised the dipper into the cage for 10 s and illuminated the cue light above the lever during reinforcer presentation and for a 1-10 s post-reinforcer Time-out (TO) period, depending on the schedule of reinforcement. […]

[2] = test system: αCGRP −/− and αCGRP +/+ mice; assay: Morphine tolerance in the tail-flick assay after repeated injections; format: in vivo; settings: αCGRP −/− vs +/+ mice; repeated ip morphine, day 1-2 50 mg/kg, day 3-4 100 mg/kg
Description: Daily injections ip of morphine were performed: day 1 and 2, 50 mg/kg, day 3-4, 100 mg/kg. Analgesia morphine was tested. αCGRP −/− and +/+ mice were analyzed in parallel.

[3] = test system: αCGRP −/− and αCGRP +/+ mice; settings: αCGRP −/− mice vs +/+, 30 min after injection
Description: The tail flick assay was performed with a tail flick analgesia meter from Columbus Instruments. The cut-off time of the test was 10 seconds.
Morphine or nicotine analgesia were analyzed by using tail flick and hot plate tests. The tests were performed 30 minutes after the injection of drug on αCGRP −/− and +/+ mice.

[4] = test system: αCGRP −/− and αCGRP +/+ mice; assay: Morphine dependence, naloxone-precipitated somatic withdrawal signs
Description: Morphine dependence was induced by repeated ip morphine injection for one week: day 1 and 2, 50 mg/kg; day 3 and 4, 100 mg/kg; days 5-7, 100 mg/kg twice/day; day 8, 100 mg/kg in the morning. […] The inventors noted the behavioral withdrawal symptoms (jumping, teeth chattering, tremors, paw tremors, wet dog shakes, ptosis, diarrhea) during 30 minutes after naloxone injection.

[5] = test system: αCGRP −/− and αCGRP +/+ mice; settings: αCGRP −/− mice vs +/+; nicotine 0.5 and 2.0 mg/kg sc; data not shown

Compound: CC(=O)Oc1ccc2c3c1O[C@H]1[C@@H](OC(C)=O)C=C[C@H]4[C@@H](C2)N(C)CC[C@@]341 [heroin]
- intake (injections per session) at 30 μg/kg/injection vs 7.5 and 15.0 μg/kg/injection doses ([1]; both genotypes, P<0.05): differed significantly
- acquisition or maintenance of self-administration ([1]; αCGRP −/− vs +/+ mice, 3.75-30 μg/kg/injection iv, FR2): did not differ

Compound: CN1CC[C@]23c4c5ccc(O)c4O[C@H]2[C@@H](O)C=C[C@H]3[C@H]1C5 [morphine]
- progressive decrease in amplitude of antinociceptive response (tolerance), tail-flick [2]: did not differ
- analgesic response in tail-flick (% MPE) ([3]; morphine 1 mg/kg ip): attenuated
- analgesic response in tail-flick (% MPE) ([3]; morphine 5 mg/kg ip): to a lesser extent

Compound: C=CCN1CC[C@]23c4c5ccc(O)c4O[C@H]2C(=O)CC[C@@]3(O)[C@H]1C5 [naloxone]
- withdrawal signs in saline-treated control mice ([4]; naloxone 2 mg/kg ip, mutant and wild type, data not shown): did not induce any withdrawal signs
- total withdrawal scores ([4]; αCGRP −/− vs +/+ mice made morphine dependent, naloxone 0.1, 0.2 and 2.0 mg/kg ip): significantly lower
- frequency of each somatic sign of morphine withdrawal (e.g. jumping) ([4]; αCGRP −/− vs +/+ mice made morphine dependent, precipitated by naloxone): reduced

Compound: CN1CCCC1c1cccnc1 (stereo not shown) [nicotine]
- analgesic effects in hot-plate test [5]: significantly increased
- analgesic effects in tail-flick (% MPE) ([3]; nicotine 0.5 and 2.0 mg/kg sc): significantly increased
